According to patent publication US8524911B2, “3-arylamino pyridine derivatives” (Merck Serono SA, priority 2004, dated 2013):
pIC50: −log10 of the molar value. Where a name gives a salt, the structure may show the parent alone.

Tests used:
human MEK1 = human MEK1 (Homo sapiens, UniProt Q02750); experiment: MEK-1 Enzyme Assay (LANCE-HTRF); format: biochemical; details: 100 nM MEK1, 15 μM ATP, 300 nM ERK2, two hours; read-out: MEK inhibition
Method: Assay 1: MEK-1 Enzyme Assay (LANCE-HTRF)
The activity of the compounds of the present invitation may be determined by the following procedure; Inhibition of human MEK1 kinase activity was monitored with a homogenous, fluorescence based assay. The assay uses time resolved fluorescence resonance energy transfer to probe for phosphorylation of ERK1 by MEK1. The assay is carried out in low volume 96 well microtiterplates. […] After two hours, 5 nM Europium-anti-PY20 (Perkin Elmer) and 50 nM Anti-GST-Allophycocyanin (CisBio) in buffer containing 50 mM EDTA and 0.05% BSA are added and the reaction incubated for one hour in the dark. Time-resolved fluorescence is measured using a LJL-Analyst (Molecular Devices) with an excitation wavelength of 340 nm and an emission wavelength of 665 nm. The final concentration of DMSO is 2%.

Murine colon C26 cells = experiment: Tumor cell proliferation assay (ATP Lite), C26; format: cell-based; details: Mus musculus, 96 h, 4 days
Method: (§1) Assay 2: Tumor Cell Proliferation Assays (ATP Lite)
(§2) Murine colon C26, human melanoma A375 and MeI5 or human pancreatic MiaPaCa-2 cells were plated in 96 well Corning white plates (1500 cells/well for C26, and 2000 cells/well for A375, and MiaPaCa-2) and cultured overnight at 37° C. in 5% CO2. Inhibitors were serially diluted in 100% DMSO and subsequently added to cells to reach a final concentration of 0.25% DMSO. The cells were incubated for 4 days in the presence of test compounds in cell growth media (DMEM with 10% fetal bovine serum, 2 mM glutamine for C26, and MiaPaCa-2, and RPMI with 10% fetal bovine serum, 2 mM glutamine for A375). Cell proliferation was quantitated using the ATP lite cell proliferation kit (Packard). Columns 4-6 show the concentration of compounds required to induce 50% cell death (IC50 in μM) of […]. With “+” meaning 3 μM<IC50≦10 μM and “++” IC50≦3 μM and “n.d.” means not determined. Few compounds were also tested on human melanoma cell MeI5.

[1] = tested on: human melanoma A375 cells; experiment: Tumor cell proliferation assay (ATP Lite), A375; format: cell-based; details: A-375, 96 h, 4 days
Method: as §1, §2

[2] = tested on: human pancreatic MiaPaCa-2 cells; experiment: Tumor cell proliferation assay (ATP Lite), MiaPaCa-2; format: cell-based; details: MIA PaCa-2, 96 h, 4 days
Method: as §1, §2

human MEK1, sequence (Q02750 whole entry): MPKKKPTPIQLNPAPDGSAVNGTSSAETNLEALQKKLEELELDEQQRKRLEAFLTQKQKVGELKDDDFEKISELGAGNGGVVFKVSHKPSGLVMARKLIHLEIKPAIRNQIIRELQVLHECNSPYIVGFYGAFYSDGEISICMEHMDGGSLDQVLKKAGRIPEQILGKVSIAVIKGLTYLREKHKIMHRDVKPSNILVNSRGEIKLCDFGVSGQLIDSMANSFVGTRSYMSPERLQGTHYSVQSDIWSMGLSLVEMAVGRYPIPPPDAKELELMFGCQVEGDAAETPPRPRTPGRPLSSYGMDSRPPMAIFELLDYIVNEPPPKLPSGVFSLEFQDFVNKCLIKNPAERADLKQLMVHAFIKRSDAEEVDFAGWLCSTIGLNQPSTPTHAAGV

SMILES | pIC50 (human MEK1) | IC50 (Murine colon C26 cells) [µM] | IC50 [1] [µM] | IC50 [2] [µM]
O=C(NCc1ccccn1)c1ccncc1Nc1ccc(I)cc1F [Example 40, 3-[(2-fluoro-4-iodophenyl)amino]-N-(pyridin-2-ylmethyl)-isonicotinamide] | > 6.00 | 3 to 10 | ≤ 3 | 3 to 10
C[C@H](O)CNC(=O)c1ccncc1Nc1ccc(I)cc1F [Example 41, 3-[(2-fluoro-4-iodophenyl)amino]-N-[(2S)-2-hydroxypropyl]-isonicotinamide] | > 6.00 | ≤ 3 | ≤ 3 | ≤ 3
O=C(NN1CCCCCC1)c1ccncc1Nc1ccc(I)cc1F [Example 42, N-azepan-1-yl-3-[(2-fluoro-4-iodophenyl)amino]isonicotinamide] | > 6.00 | 3 to 10 | ≤ 3 | 3 to 10
O=C(NOC[C@H](O)CO)c1ccnc(Cl)c1Nc1ccc(I)cc1F [Example 43, 2-Chloro-N-[(2R)-2,3-dihydroxy-propoxy]-3-(2-fluoro-4-iodo-phenylamino)-isonicotinamide] | > 6.00 | 3 to 10 | ≤ 3 | 3 to 10
NC1CCN(C(=O)c2ccncc2Nc2ccc(I)cc2F)CC1 [Example 44, 4-[(4-aminopiperidin-1-yl)carbonyl]-N-(2-fluoro-4-iodophenyl)pyridin-3-amine hydrochloride] | > 6.00 | 3 to 10 | ≤ 3 | 3 to 10
CC(C)(C)OC(=O)NNC(=O)c1ccncc1Nc1ccc(I)cc1F [Example 45, tert-butyl 2-{3-[(2-fluoro-4-iodophenyl)amino]-isonicotinoyl}hydrazine-carboxylate] | > 6.00 | 3 to 10 | ≤ 3 | 3 to 10
O=C(O)c1ccc(CNC(=O)c2ccncc2Nc2ccc(I)cc2F)cc1 [Example 46, 4-[({3-[(2-fluoro-4-iodophenyl)amino]isonicotinoyl}-amino)methyl]benzoic acid] | > 6.00 | 3 to 10 | ≤ 3 | 3 to 10
O=C(NC1CC1)c1ccncc1Nc1ccc(I)cc1F [Example 47, N-cyclopropyl-3-[(2-fluoro-4-iodophenyl)amino]isonicotinamide] | > 6.00 | ≤ 3 | ≤ 3 | ≤ 3
C[C@@H](O)CNC(=O)c1ccncc1Nc1ccc(I)cc1F [Example 48, 3-[(2-fluoro-4-iodophenyl)amino]-N-[(2R)-2-hydroxypropyl]-isonicotinamide] | > 6.00 | ≤ 3 | ≤ 3 | ≤ 3
O=C(NNc1ccccn1)c1ccncc1Nc1ccc(I)cc1F [Example 49, 3-[(2-fluoro-4-iodophenyl)amino]-N′-pyridin-2-ylisonicotino-hydrazide] | > 6.00 | ≤ 3 | ≤ 3 | ≤ 3
O=C(NNc1nccc(C(F)(F)F)n1)c1ccncc1Nc1ccc(I)cc1F [Example 50, 3-[(2-fluoro-4-iodophenyl)amino]-N′-[4-(trifluoromethyl)pyrimidin-2-yl]isonicotinohydrazide] | > 6.00 | 3 to 10 | ≤ 3 | 3 to 10
NNC(=O)c1ccncc1Nc1ccc(I)cc1F [Example 51, 3-[(2-fluoro-4-iodophenyl)amino]isonicotinohydrazide] | > 6.00 | 3 to 10 | ≤ 3 | ≤ 3
O=C(NCC1CC1)c1ccncc1Nc1ccc(I)cc1F [Example 53, N-(cyclopropylmethyl)-3-[(2-fluoro-4-iodophenyl)amino]-isonicotinamide] | > 6.00 | ≤ 3 | ≤ 3 | ≤ 3
COc1cccc(C(=O)NNC(=O)c2ccncc2Nc2ccc(I)cc2F)c1 [Example 55, 3-[(2-fluoro-4-iodophenyl)amino]-N′-(3-methoxybenzoyl)-isonicotinohydrazide] | > 6.00 | 3 to 10 | ≤ 3 | 3 to 10
